Measured values from patent US9522920B2, “Bromodomain inhibitors and uses thereof” (Constellation Pharmaceuticals, Inc., priority 2010, dated 2016).
Like-named read-outs stand apart in the source and are kept apart here.

Experiments:
BRD4(BD1) = target: T1, BRD4(BD1) (Homo sapiens, UniProt O60885); test: BRD4 AlphaLisa binding assay (Alphascreen)
T1 construct: His; made in house
In short: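 BRD4(BD1) (30 nM) incubated 20 min at room temperature with peptide (200 nM) and compound in 40 mM HEPES pH 7.0, 40 mM NaCl, 1 mM DTT, 0.01% BSA, 0.008% Brij-35, 1.2% DMSO.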

IL-6 secretion = test: Cell-based IL-6 quantification assay (ELISA, Mesoscale) in LPS-stimulated THP-1 cells; details: THP-1 cells, 16 h, read-out: IL6
In short: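 THP-1 cells stimulated with LPS at 4 μg/mL final and exposed to compounds for 16 h. Supernatant IL-6 measured by Mesoscale ELISA and normalized to CellTiter-Glo cell content. Percent inhibition derived from that ratio.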

MYC mRNA [1] = test: cMyc RNA quantification assay (QuantiGene) in Raji cells; format: cell-based; details: 4 h
Protocol: (§1) MV4:11 (AML) or Raji (Burkitt's lymphoma) cells were seeded in a 96-well plate and incubated in the presence of various concentrations of compounds for 4 h. Relative mRNA levels were quantitated by using QuantiGene 2.0 assay (Affymetrix) according to the manufacturer's recommendation. Signals were detected by using an Envision plate reader (Perkin-Elmer). Biological duplicates were averaged and normalized to vehicle (DMSO) control to calculate percent MYC mRNA levels.

MYC mRNA [2] = test: cMyc RNA quantification assay (QuantiGene) in MV4:11 cells; format: cell-based; details: read-out: MYC-MV411
Protocol: as §1

[3] = system: LPS-induced IL-6 production; test: In-vivo inhibition of LPS-induced IL-6 production; design: species or system Balb/C mice; details: for ED50: Mus musculus; for ED50 (mg/kg): Table 15, oral gavage 30 min prior to LPS, plasma IL-6 ELISA two hours after LPS challenge, 50% inhibition compared to vehicle
Protocol: Female Balb/C mice, 6 weeks old upon arrival at animal facility, and weighing 18-20 g/mouse were used for this assay. The mice are acclimated in animal facility for 5-7 days prior experiment initiation. Mice were randomly divided into experimental groups to include several doses of test article, and vehicle and dexamethasone controls. Mice were fasted from 12 hours prior to study initiation (dosing), but allowed free access to water. Mice were dosed following study group design by oral gavage 30 min prior to LPS stimulation. Dosing interval time was 1 min/mouse.
Two hours after LPS challenge animals were anesthetized by CO2 inhalation, and blood was sampled via cardiac puncture into EDTA coated tubes and placed on ice. Plasma was separated by centrifugation at 3000 g at 4° C. for 15 min. The separated plasma was divided into aliquots (50 ul/aliquot) and stored at −80° C. until plasma IL-6 ELISA and drug levels were analyzed.

Myc RNA = Myc RNA quantification in xenograft model; format: in vivo, NOD SCID mice; details: for ED50: Mus musculus, Raji, po
Protocol: Female NOD SCID mice (Harlan) were inoculated s.c. with 3×10^6 Raji cells per mouse resuspended in 10% Matrigel. Tumors were grown until they reached a size of 200 mm^3 to 400 mm^3 as measured by caliper. Mice were treated orally (5 mL/kg) with different doses of compounds prepared as a 2 mg/mL suspension of Carboxy-methyl-cellulose. At the indicated time points after treatment, tumors were harvested. RNA was isolated by using TRIzol extraction and processed for QuantiGene® Assay.

[4] = Table 6, BRD4(BD1) 30 nM, H4-tetraacetyl peptide 200 nM, read-out: BRD4 Alphascreen IC50
[5] = Homo sapiens, THP-1, 16 h, Table 7, LPS 4 μg/mL, normalised to CellTiter-Glo
[6] = Homo sapiens, Table 7, Raji (Burkitt's lymphoma) cells
[7] = Homo sapiens, MV4-11, 4 h, Table 7, MV4:11 (AML) cells
[8] = Table 7, LPS 4 μg/mL, normalised to CellTiter-Glo
[9] = Table 7, Raji (Burkitt's lymphoma) cells
[10] = Table 7, MV4:11 (AML) cells, 4 h
[11] = Table 14, BRD4 AlphaLisa Binding Assay, read-out: Alpha screen
[12] = Homo sapiens, THP-1, 16 h, Table 14, LPS
[13] = Homo sapiens, Table 14, Raji cells
[14] = Homo sapiens, MV4-11, 4 h, Table 14, MV4:11 cells

Row | Structure (SMILES) | IC50 (BRD4(BD1); [4]) [nM] | IC50 (IL-6 secretion; [5]) [nM] | IC50 (MYC mRNA [1]; [6]) [nM] | IC50 (IL-6 secretion; [8]) [nM] | IC50 (MYC mRNA [1]; [9]) [nM] | IC50 (BRD4(BD1); [11]) [nM] | IC50 (IL-6 secretion; [12]) [nM] | IC50 (MYC mRNA [2]; [14]) [nM] | other results
1 | Cc1noc2c1-c1sc(C)c(C)c1C(c1ccc(Cl)cc1)=N[C@H]2CC(N)=O [Compound 110, 2-((6S)-4-(4-chlorophenyl)-2,3,9-trimethyl-6H-isoxazolo[5,4-c]thieno[2,3-e]azepin-6-yl)acetamide] | < 500 | < 500 | < 500 | – | – | – | – | – | IC50 (MYC mRNA [2]; [7]): < 500 nM; ED50 [3]: < 10 mg/kg; ED50 (Myc RNA): 20 to 50 mg/kg
2 | Cc1noc2c1-c1sc(C)c(C)c1C(c1ccc(C#N)cc1)=NC2CC(=O)NCCF (stereo not drawn) [Compound 114] | < 500 | < 500 | < 500 | – | – | – | – | – | ED50 (Myc RNA): 20 to 50 mg/kg
3 | Cc1cccc2c1C(c1ccc(Cl)cc1)=NC(CC(N)=O)c1onc(C)c1-2 (stereo not drawn) [Compound 128] | < 500 | – | – | < 500 | < 500 | – | – | – | ED50 (mg/kg) [3]: ++ (“++” indicates an ED50 of less than 10 mg/kg)
4 | Cc1cccc2c1C(c1ccc(F)cc1)=NC(CC(N)=O)c1onc(C)c1-2 (stereo not drawn) [Compound 129] | < 500 | < 500 | < 500 | – | – | – | – | – | ED50 [3]: < 10 mg/kg; ED50 (Myc RNA): 20 to 50 mg/kg
5 | Cc1cccc2c1C(c1ccc(C#N)cc1)=N[C@@H](CC(N)=O)c1onc(C)c1-2 [Compound 130] | < 500 | – | – | < 500 | < 500 | – | – | – | IC50 (MYC mRNA [2]; [10]): < 500 nM
6 | Cc1cccc2c1C(c1ccc(C(F)(F)F)cc1)=NC(CC(N)=O)c1onc(C)c1-2 (stereo not drawn) [Compound 132] | < 500 | < 500 | < 500 | – | – | – | – | – | IC50 (MYC mRNA [2]; [7]): < 500 nM; ED50 [3]: < 10 mg/kg; ED50 (Myc RNA): < 20 mg/kg
7 | Cc1cccc2c1C(c1ccc(OC(F)(F)F)cc1)=N[C@@H](CC(N)=O)c1onc(C)c1-2 [Compound 136] | < 500 | – | – | < 500 | < 500 | – | – | – | IC50 (MYC mRNA [2]; [10]): < 500 nM
8 | Cc1noc2c1-c1cccc(Cl)c1C(c1ccc(Cl)cc1)=N[C@H]2CC(N)=O [Compound 139] | < 500 | – | – | < 500 | < 500 | – | – | – | IC50 (MYC mRNA [2]; [10]): < 500 nM
9 | Cc1noc2c1-c1ccccc1C(c1ccc(Cl)cc1)=N[C@H]2CC(N)=O [Compound 144] | – | – | – | < 500 | < 500 | – | – | – | IC50 (MYC mRNA [2]; [10]): < 500 nM; ED50 (mg/kg) [3]: ++ (“++” indicates an ED50 of less than 10 mg/kg); ED50 (mg/kg) (Myc RNA; Table 16, Raji xenograft tumors, oral treatment, Myc RNA by QuantiGene, 50% inhibition compared to vehicle): ++ (“++” indicates an ED50 of less than 20 mg/kg)
10 | COCCNC(=O)C[C@@H]1N=C(c2ccc(Cl)cc2)c2ccccc2-c2c(C)noc21 [Compound 145] | < 500 | – | – | < 500 | < 500 | – | – | – | IC50 (MYC mRNA [2]; [10]): < 500 nM
11 | Cc1noc2c1-c1ccccc1C(c1ccc(C#N)cc1)=N[C@H]2CC(N)=O [Compound 148] | < 500 | – | – | < 500 | < 500 | – | – | – | IC50 (MYC mRNA [2]; [10]): < 500 nM; ED50 (mg/kg) [3]: + (“+” indicates and ED50 of between 10 and 50 mg/kg)
12 | CCNC(=O)C[C@@H]1N=C(c2ccc(Cl)cc2)c2c(sc(C)c2C)-c2c(C)noc21 [Compound 165, 2-((6S)-4-(4-chlorophenyl)-2,3,9-trimethyl-6H-isoxazolo[4,5-e]thieno[3,2-c]azepin-6-yl)-N-ethylacetamide] | < 500 | < 500 | < 500 | – | – | – | – | – | ED50 [3]: 10 to 50 mg/kg
13 | Cc1noc2c1-c1ccnc(F)c1C(c1ccc(Cl)cc1)=N[C@H]2CC(N)=O [Compound 180, 2-((4S)-6-(4-Chlorophenyl)-7-fluoro-1-methyl-4H-isoxazolo[5,4-c]pyrido[4,3-e]azepin-4-yl)acetamide] | – | < 500 | 500 to 1000 | – | – | – | – | – | IC50 (MYC mRNA [2]; [7]): 500 to 1000 nM
14 | CNc1nccc2c1C(c1ccc(Cl)cc1)=N[C@@H](CC(N)=O)c1onc(C)c1-2 [Compound 181, 2-((4S)-6-(4-chlorophenyl)-1-methyl-7-(methylamino)-4H-isoxazolo[5,4-c]pyrido[4,3-e]azepin-4-yl)acetamide] | < 500 | < 500 | < 500 | – | – | – | – | – | IC50 (MYC mRNA [2]; [7]): < 500 nM
15 | Cc1noc2c1-c1ccc(-c3ccc(N)nc3)cc1C(c1ccc(C(F)(F)F)cc1)=N[C@H]2CC(N)=O [Compound 206] | – | – | – | – | – | < 500 | < 500 | < 500 | IC50 (MYC mRNA [1]; [13]): < 500 nM
16 | Cc1noc2c1-c1sc(C)c(C)c1C(c1ccc(C(F)(F)F)cc1)=NC2CC(N)=O (stereo not drawn) [Compound 208] | – | – | – | – | – | < 500 | < 500 | < 500 | IC50 (MYC mRNA [1]; [13]): < 500 nM
17 | Cc1noc2c1-c1sc(C)c(C)c1C(c1ccc(C#N)cc1)=N[C@H]2[C@@H](C)C(N)=O [Compound 209, (2R)-2-((6S)-4-(4-cyanophenyl)-2,3,9-trimethyl-6H-isoxazolo[5,4-c]thieno[2,3-e]azepin-6-yl)propanamide] | – | – | – | – | – | < 500 | < 500 | < 500 | IC50 (MYC mRNA [1]; [13]): 500 to 1000 nM
18 | Cc1noc2c1-c1ccc(F)cc1C(c1ccc(Cl)cc1)=N[C@H]2CC(N)=O [Compound 210] | – | – | – | – | – | < 500 | < 500 | < 500 | IC50 (MYC mRNA [1]; [13]): 500 to 1000 nM
19 | Cc1noc2c1-c1ccc(OC(C)C)cc1C(c1ccc(Cl)cc1)=N[C@H]2CC(N)=O [Compound 249] | – | – | – | – | – | < 500 | – | – | IC50 (IL-6 secretion; Table 14, LPS): < 500 nM; IC50 (MYC mRNA [2]; Table 14, MV4:11 cells, 4 h): < 500 nM
20 | Cc1noc2c1-c1cnc(N3CCCC3)cc1C(c1ccc(Cl)cc1)=NC2 [Compound 255, 6-(4-Chlorophenyl)-1-methyl-8-(pyrrolidin-1-yl)-4H-isoxazolo[5,4-c]pyrido[3,4-e]azepine] | – | – | – | – | – | < 500 | < 500 | 500 to 1000 | –
21 | Cc1noc2c1-c1cnc(Cl)cc1C(c1ccc(Cl)cc1)=NC2 [Compound 256, 8-Chloro-6-(4-chlorophenyl)-1-methyl-4H-isoxazolo[5,4-c]pyrido[3,4-e]azepine] | – | – | – | – | – | > 1000 | > 1000 | > 1000 | –
22 | Cc1noc2c1-c1ccc(N)nc1C(c1ccc(Cl)cc1)=NC2 [Compound 257, 6-(4-Chlorophenyl)-1-methyl-4H-isoxazolo[5,4-c]pyrido[3,2-e]azepin-8-amine] | – | – | – | – | – | < 500 | 500 to 1000 | > 1000 | –
